From US8993527B2, “Methods, compositions, and formulations for preventing or reducing adverse effects in a patient” (Pericor Therapeutics, Inc., priority 2005, dated 2015)
Blank lines part the entries; values can stand above or below the molecule they belong to.

Columns and labels:
[1] = test system: longitudinal muscle from the guinea pig ileum; test: Inhibition of stimulated contraction in isolated ileum; settings: electrically stimulated guinea pig ileum muscle
Text: These are detailed in Table II.

[2] = Oral bioavailability and half-life in fasted adult beagles; type: in vivo, dog
Experimental: Heparinized blood and urine were collected at selected intervals over 24 hours. Each sample was chilled, centrifuged at 4° C. and frozen prior to HPLC analysis.

ischemic rat hearts = test: Rat heart ischemia model: tissue adenosine levels; type: in vivo; settings: intraperitoneal; hearts excised after 60 minutes, incubated 60 minutes at 37° C.
Experimental: Male rats were injected intraperitonealy with either the AICA riboside analog, AICA riboside or saline, as a control. After 60 minutes, the hearts were excised and incubated at 37° C. for a further 60 minutes. Tissue extracts were prepared and analyzed for adenosine by high performance liquid chromatography (HPLC).

[3] = test system: patients undergoing coronary artery bypass surgery; test: Aspirin within 48 hours of revascularization: prospective study of CABG patients; type: in vivo
Text: A prospective, longitudinal study enrolled 5,436 patients. Eligible patients included those with medically-refractory coronary artery disease and scheduled for coronary artery bypass surgery at 70 medical institutions among 17 countries in North and South America, Europe, the Middle East and Asia. At each institution, 100 patients were to be prospectively enrolled according to a systematic sampling scheme that allowed a random sampling of patients at each institution among all patients undergoing surgery at that institution.
Of the 5,436 patients enrolled, 5,065 patients completed the study and were included in the final analysis. Of the 371 patients excluded, 32 were excluded due to patient withdrawal, 2 due to death prior to surgery, 97 due to cancellation or rescheduling of surgery, 132 patients due to change in procedure, 11 due to inadvertent enrollment in another study, 86 due to incomplete data and 11 due to incomplete blood sampling, shipping or storage.
Aspirin was administered in doses of 160 mg to 650 mg to 3,001 patients within 48 hours of revascularization. All potential side-effects associated with aspirin use were recorded daily by blinded investigators. Independent investigators coded all medications received-including pro- and anti-thrombotic and pro- and anti-coagulant medications, and blood products—by day throughout hospitalization, as well as at admission and at discharge, or until death.
For each enrolled patient, approximately 7,500 fields of data were collected throughout the patient's index hospitalization, from admission until discharge, by independent investigators; treated physicians were blinded to all research data. Data included demographic, historical, clinical, laboratory, eloectrocardiographic, specialized testing, resource utilization, and adverse outcomes. Following last patient enrollment, all data fields for each patient were queried centrally for completeness and accuracy, with all changes documented prior to database closure.
All outcomes were prespecified, defined by protocol, and discerned by investigators blinded to treatment group. Fatal and non-fatal outcomes were classified as cardiac (myocardial infarction, congestive heart failure and cardiac death), cerebral (stroke, encephalopathy and cerebral death), renal (dysfunction, failure and renal death), gastrointestinal (ischemia, infarction and GI death), or other (such as infectious, pulmonary). The diagnosis of myocardial infarction required either: the development of new Q waves (as defined by Minnesota Code 1-1-1I or 1I-2-7); or new persistent S T-segment or T-wave changes (Minnesota Code 4-1, 4-2, 5-1 or 5-2) associated with an elevation of CK-MB isoenzyme values; or autopsy evidence of acute myocardial infarction. The diagnosis of heart failure required either: the use of a ventricular assist device; or the use of continuous inotropic support for at least 24 hours; or autopsy evidence of heart failure. Cerebral outcomes were classified as: clinically diagnosed stroke or encephalopathy; or CT, MRI or autopsy evidence of a focal or global defect. Renal dysfunction was defined as: a serum creatinine ≧177 μmol/L accompanied by a ≧62 μmol/L rise over baseline; and renal failure was defined as dysfunction requiring dialysis, or autopsy evidence of renal failure. Gastrointestinal ischemia was defined as abdominal pain diagnosed as intestinal ischemia, or detected at exploration; infarction required bowel resection, or autopsy evidence of intestinal infarction.
The risk of death for aspirin taking versus control populations were compared using the Chi-Square test. Individual ischemic outcomes involving the heart, brain, kidney and gastrointestinal tract, and combined ischemic outcomes were compared using Fisher's Exact Test or the Chi-Square test as appropriate. Odds ratios and the 95% confidence intervals are presented with associated P values. […]

[4] = biological target: T1, NBTI-specific adenosine transport site (UniProt O54698); test: [3H]-NBTI binding assay; settings: read-out: ED50 (50% displacement of bound [3H]-NBTI); 0.5 mg neuronal membrane protein, 0.5 nM [3H]-NBTI, 30 minutes
T1 sequence (O54698 1-457): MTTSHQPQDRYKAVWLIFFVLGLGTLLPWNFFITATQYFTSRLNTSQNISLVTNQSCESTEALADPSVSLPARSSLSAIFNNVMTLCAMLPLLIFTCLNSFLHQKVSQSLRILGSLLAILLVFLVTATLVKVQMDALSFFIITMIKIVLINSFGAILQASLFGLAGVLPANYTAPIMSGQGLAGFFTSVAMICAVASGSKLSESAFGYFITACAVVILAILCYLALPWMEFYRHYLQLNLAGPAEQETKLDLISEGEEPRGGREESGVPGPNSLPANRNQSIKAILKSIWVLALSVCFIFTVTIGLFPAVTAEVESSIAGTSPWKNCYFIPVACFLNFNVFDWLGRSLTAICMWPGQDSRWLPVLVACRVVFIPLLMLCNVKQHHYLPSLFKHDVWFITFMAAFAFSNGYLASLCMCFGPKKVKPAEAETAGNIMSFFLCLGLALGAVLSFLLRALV
Experimental: Increasing concentrations of the test compounds were incubated for 30 minutes with 0.5 mg neuronal membrane protein together with 0.5 nM [^3 H]-NBTI in a Tris buffer (pH 7.4) at room temperature. The assays were quenched and membranes collected by rapid filtration. Filters were then solubilized and radioactivity determined by scintillation counting.

[5] = biological target: T2, purified pig heart adenosine kinase (Sus scrofa, UniProt A0A5G2R0F5); test: Adenosine kinase activity; type: biochemical; settings: 0.5 μM [U14C] adenosine, 1 mM ATP, 20 minutes at 37° C.
T2 construct: 0.1 μg of purified pig heart adenosine kinase; from tissue; host or cells: pig heart
Experimental: Inhibition of enzyme activity was determined using a 0.1 ml assay mixture containing 50 mM Tris-maleate, pH 7.0, 0.1% (w/v) BSA, 1 mM ATP, 1 mM MgCl2, 0.5 μM [U^14 C] adenosine (500 mCi/mmol) and 0.1 μg of purified pig heart adenosine kinase. Different concentrations of test compound were incubated in the assay mixture for 20 minutes at 37° C. From each reaction mixture, 20 μl portions were removed and spotted on 2^2 pieces of Whatman DE81 filter paper. The papers were then washed to remove [^14 C] adenosine in 1 mM ammonium formate followed by deionized water and finally 95% ethanol. The papers were dried, and [^14C] AMP measured by scintillation counting. Activities were determined from the amount of [^14C] AMP formed.

[6] = test system: platelet aggregation in human whole blood; test: Inhibition of platelet aggregation in human whole blood; type: cell-based; settings: Homo sapiens, Platelet, 10 min, 10 minutes at 37° C., 10 µM adenosine added, ADP (6-25 μM)
Experimental: Whole blood was drawn from healthy donors and collected in 0.1 vol. of sodium citrate to prevent coagulation. Platelet aggregation was measured by the impedance technique using a Whole Blood Aggregometer. The test compounds were incubated in whole blood for 10 minutes at 37° C. and 10 µM adenosine was added 5 minutes before eliciting aggregation. Aggregation was induced by addition of ADP (6-25 μM) at the minimum concentration inducing full aggregation in untreated controls.

[7] = test system: coronary endothelial cells; test: Inhibition of adenosine utilization in cell culture; type: cell-based; settings: Endothelial cell, 1 μM [3H] adenosine, 15 minutes
Experimental: In this assay, endothelial cells were incubated with 5 μM or 50 μM of the test compound together with 1 μM [^3H] adenosine for 15 minutes. Inhibition of adenosine utilization was determined by measuring the concentration of extracellular adenosine by scintillation counting following separation by thin layer chromatography (TLC).

T2 sequence (A0A5G2R0F5 1-362): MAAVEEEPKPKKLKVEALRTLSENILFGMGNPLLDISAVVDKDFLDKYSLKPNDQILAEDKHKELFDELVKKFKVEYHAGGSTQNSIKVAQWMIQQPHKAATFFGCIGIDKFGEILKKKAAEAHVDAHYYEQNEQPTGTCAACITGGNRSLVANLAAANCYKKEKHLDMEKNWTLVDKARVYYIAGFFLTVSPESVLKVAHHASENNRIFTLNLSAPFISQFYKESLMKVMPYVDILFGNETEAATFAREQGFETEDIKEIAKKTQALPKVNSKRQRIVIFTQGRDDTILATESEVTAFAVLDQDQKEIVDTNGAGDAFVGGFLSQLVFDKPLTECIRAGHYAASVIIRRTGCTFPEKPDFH

SMILES: CC(=O)OC[C@H]1O[C@@H](c2nc(C(N)=O)c(N)[nH]2)[C@H](OC(C)=O)[C@@H]1OC(C)=O [Compound No. 2 (1-111), 5-Amino-(2,3,5-tri-O-acetyl-beta-D-ribofuranosyl)imidazole-4-carboxamide]
melting point: 128 to 129 °C

SMILES: Nc1c(C(=O)NN2CCCCC2)ncn1[C@@H]1O[C@H](CO)[C@@H](O)[C@H]1O [Compound No. 36 (1-207), 5-amino-4-(1-piperidinocarbamoyl)-1-β-D-ribofuranosylimidazole]
Tissue Adenosine Levels (% Increase vs. Saline) (ischemic rat hearts): 34%

SMILES: CC(=O)CC(c1ccccc1)c1c(O)c2ccccc2oc1=O (stereo not shown) [Warfarin/coumadin]
Odds Ratio for mortality (multivariate) ([3]; Warfarin/coumadin over the week prior to revascularization): 2.00

SMILES: Nc1c(C(=O)NC2CC2)ncn1[C@@H]1O[C@H](CO)[C@@H](O)[C@H]1O [Compound No. 12 (1-232), 5-Amino-1-beta-D-ribofuranosylimidazole-4-N-(cyclopropyl)carboxamide]
IC50 [1]: 400 µM
Tissue Adenosine Levels (% Increase vs. Saline) (ischemic rat hearts): 29%

SMILES: CC(=O)Oc1ccccc1C(=O)O [Aspirin]
Odds Ratio for mortality (multivariate) ([3]; Aspirin use (admission)): 1.46
Odds Ratio for mortality (multivariate) ([3]; Aspirin use (prior to surgery)): 0.77
Odds Ratio for mortality (multivariate) ([3]; Aspirin use following revascularization): 0.27
Odds Ratio for mortality (multivariate) ([3]; Discontinuation of aspirin use): 1.04
Length of hospitalization ([3]; aspirin group, 11.32±9.44 without): 9.57±7.14
patients who died within 12 hours of surgery ([3]; aspirin group, 25 patients in the control group): none
patients who died within 48 hours of surgery ([3]; aspirin group, 42 patients in the control group): one
risk of dying during hospitalization ([3]; aspirin within 48 hours of revascularization, 5.9% without): 1.4%
non-fatal ischemic complications (heart, brain, kidney or gastrointestinal tract) ([3]; aspirin within 48 hours of revascularization, 24.5% without): 13.6%
reduction in mortality ([3]; first use of aspirin 48 hours after surgery, not significant (P=0.534)): 15%

SMILES: NC(=O)c1nc(S)n([C@@H]2O[C@H](CO)[C@@H](O)[C@H]2O)c1N [27 (1-395), 5-amino-2-thio-1-β-D-ribofuranosyl imidazole-4-carboxamide]
IC50 ([1]; Cavia porcellus): 500 µM
EC50 [4]: 344 µM
IC50 [5]: 8 µM
IC50 [6]: 950 µM
melting point: 205 to 208 °C

SMILES: Nc1c(C(=O)NCc2ccc([N+](=O)[O-])cc2)ncn1C1OC(CCl)C(O)C1O (stereo not shown) [51 (1-466)]
inhibition at 5 µM [7]: 27 ± 2%
inhibition at 50 µM [7]: 65 ± 2%
IC50 [6]: 193 µM
melting point: 174 to 176 °C

Second part, led by results:

IC50 [1]: 800 µM
Half Life [2]: 1.30 h
Absolute Oral Bioavailability % ([2]; 10 mg/kg IV bolus and 20 mg/kg via stomach tube): 71 ± 13 (n = 2) %
SMILES: NC[C@H]1O[C@@H](n2cnc(C(N)=O)c2N)[C@H](O)[C@@H]1O [Compound No. 21 (1-227), 5′-Amino-5′-deoxy-AICA-riboside]

EC50 [4]: 80 µM
melting point: 227 to 229 °C
SMILES: Nc1c(C(=O)Nc2ccc(I)cc2)ncn1C1OC(CO)C(O)C1O [Compound No. 57 (1-488), 5-Amino-1-β-D-ribofuranosyl-imidazole-4-N-(4-iodophenyl) carboxamide]

EC50 [4]: 60 µM
melting point: 214 to 216 °C (dec.)
SMILES: Nc1c(C(=O)Nc2ccc(Br)cc2)ncn1C1OC(CO)C(O)C1O [Compound No. 55 (1-484), 5-Amino-1-β-D-ribofuranosylimidazole-4-N-(4-bromophenyl)carboxamide]

EC50 [4]: 48 µM
melting point: 131 to 135 °C
SMILES: Nc1c(C(=O)Nc2ccccc2Cl)ncn1C1OC(CO)C(O)C1O [Compound No. 64 (1-519), 5-Amino-1-β-D-ribofuranosylimidazole-4-N-(2-chlorophenyl)carboxamide]

IC50 [5]: 23 µM
SMILES: C[C@H]1O[C@@H](n2c(S)nc(C(N)=O)c2N)[C@H](O)[C@@H]1O [Compound No. 67 (1-535), 5-Amino-2-thio-1-βD-(5 deoxyribofuranosyl)imidazole-4-carboxamide]

IC50 ([1]; Cavia porcellus): 60 µM
EC50 [4]: 100 µM
IC50 [6]: 90 µM
SMILES: Nc1c(C(=O)NCc2ccc(Cl)cc2)ncn1C1OC(CO)C(O)C1O [Compound No. 29 (1-349), 5-amino-1-β-D-ribofuranosylimidazole-4-N-[(4-Chlorophenyl)methyl]carboxamide]
inhibition at 5 µM [7]: 41 ± 11%
inhibition at 50 µM [7]: 67 ± 8%

IC50 [5]: 17 µM
SMILES: NC[C@H]1O[C@@H](n2c(S)nc(C(N)=O)c2N)[C@H](O)[C@@H]1O [Compound No. 70 (1-551), 5-Amino-2-thio-1-(5-amino-5-deoxy-β-D-ribofuranosyl)imidazole-4-carboxamide]
